Literature values in PMC13061384, “Rapid behavioral screening in the planarian Dugesia japonica is a biologically relevant system to study neurotoxicity of organophosphorus pesticides mixtures” (Frontiers in Toxicology, 2026).

Conditions: ref PubChem

## CCOP(=S)(OCC)Oc1ccc([N+](=O)[O-])cc1 [PT, Parathion]
  logP: 3.8
